Test results as given in patent US10155788B2, “Cationic steroidal antimicrobial prodrug compositions and uses thereof” (BRIGHAM YOUNG UNIVERSITY, priority 2014, dated 2018).
≈ marks a conversion by molar mass, not a printed value.

Key:
C57BL/6 female mice = test: Maximum Tolerated Dose study of CSA-192 MS, intravenous, in mice; format: in vivo; details: for mortality and abnormal clinical signs: 7 days observation
Source text: The objective of this study was to determine the Maximum Tolerated Dose (MTD) of CSA-192 MS following intravenous (i.v.) administration at various dose levels in C57BL/6 female mice. FIG. 2 is a graph showing CSA-192 MS Kinetics.
Immunocompetent C57BL/6 female mice weighing 16 to 20 g were obtained from the University of Sevilla's facility. The number of animals that were selected for use in this study was considered to be the minimum requirement to meet rational scientific endpoints.
One the first day of the study, mice were subjected to randomization and allocated to different groups, so that each group (G) contains 6 females. Each cage housed 6 mice. Each cage was identified by a cage card, with details like study item, species, strain, sex, number of animals, date, dose, and investigator name.
The study was conducted at four different dose levels. On day 1 of treatment all the animals in G1, G2, G3, and G4 groups were administered with CSA-192 MS at 4, 8, 16, and 32 mg/kg based on their body weight. Dose volumes were maintained at 0.2 mL for G1, G2, and G3. The dose volume for G4 was 0.32 mL.
More particularly, the test item was administered by intravenous route, at dose concentration of 4 mg/kg body weight for G1, 8 mg/kg body weight for G2, 16 mg/kg body weight for G3, and 32 mg/kg body weight G4 groups, respectively. Dose volumes were maintained at 0.2 mL for G1, G2, and G3. For group G4 the dose volume was 0.32 mL.
The first day they were checked immediately after dose administration, at 30 min, 1 hour, and every 4 hours, the following days twice a day. Mice were sacrificed on day 7 of the study period.

[1] = system: ATCC 25923 strain of staphylococcus aureus; test: Minimum inhibitory concentration against staph A; format: cell-based; details: ATCC25923; staphylococcus aureus ATCC 25923
Method: The pharmacological analysis of the methane sulfonate prodrug of CSA-13 (CSA-13 MS) versus the free base CSA-13 compound was assessed for their antimicrobial properties against the ATCC 25923 strain of staphylococcus aureus (hereinafter “staph A”).

## CCCCCCCCNC(=O)CC[C@@H](C)[C@H]1CC[C@H]2[C@@H]3[C@H](OCCCN)C[C@@H]4C[C@H](OCCCN)CC[C@]4(C)[C@H]3C[C@H](OCCCN)[C@]12C [CSA-192 MS]
C57BL/6 female mice; 4.0 mg/kg body weight (G1), intravenously
  mortality and abnormal clinical signs: no incidences of mortality and abnormal clinical signs
C57BL/6 female mice; 8.0 mg/kg body weight (G2), intravenously
  mortality and abnormal clinical signs: no incidences of mortality and abnormal clinical signs
C57BL/6 female mice; 16.0 mg/kg body weight (G3), intravenously, immediately after administration, disappeared after an hour, rest of G3 without signs
  clinical signs: one animal showed signs of somnolence
C57BL/6 female mice; 32.0 mg/kg body weight (G4), intravenously
  mortality and abnormal clinical signs: no incidences of mortality and abnormal clinical signs
C57BL/6 female mice; G1 4 mg/Kg i.v., Day 1
  Clinical observations/No of animals per group: 0/6
  No of animals found dead/No. of animals per group: 0/6
C57BL/6 female mice; G1 4 mg/Kg i.v., Day 2
  Clinical observations/No of animals per group: 0/6
  No of animals found dead/No. of animals per group: 0/6
C57BL/6 female mice; G1 4 mg/Kg i.v., Day 3
  Clinical observations/No of animals per group: 0/6
  No of animals found dead/No. of animals per group: 0/6
C57BL/6 female mice; G1 4 mg/Kg i.v., Day 4
  Clinical observations/No of animals per group: 0/6
  No of animals found dead/No. of animals per group: 0/6
C57BL/6 female mice; G1 4 mg/Kg i.v., Day 5
  Clinical observations/No of animals per group: 0/6
  No of animals found dead/No. of animals per group: 0/6
C57BL/6 female mice; G1 4 mg/Kg i.v., Day 6
  Clinical observations/No of animals per group: 0/6
  No of animals found dead/No. of animals per group: 0/6
C57BL/6 female mice; G1 4 mg/Kg i.v., Day 7
  Clinical observations/No of animals per group: 0/6
  No of animals found dead/No. of animals per group: 0/6
C57BL/6 female mice; G2 8 mg/kg i.v., Day 1
  Clinical observations/No of animals per group: 0/6
  No of animals found dead/No. of animals per group: 0/6
C57BL/6 female mice; G2 8 mg/kg i.v., Day 2
  Clinical observations/No of animals per group: 0/6
  No of animals found dead/No. of animals per group: 0/6
C57BL/6 female mice; G2 8 mg/kg i.v., Day 3
  Clinical observations/No of animals per group: 0/6
  No of animals found dead/No. of animals per group: 0/6
C57BL/6 female mice; G2 8 mg/kg i.v., Day 4
  Clinical observations/No of animals per group: 0/6
  No of animals found dead/No. of animals per group: 0/6
C57BL/6 female mice; G2 8 mg/kg i.v., Day 5
  Clinical observations/No of animals per group: 0/6
  No of animals found dead/No. of animals per group: 0/6
C57BL/6 female mice; G2 8 mg/kg i.v., Day 6
  Clinical observations/No of animals per group: 0/6
  No of animals found dead/No. of animals per group: 0/6
C57BL/6 female mice; G2 8 mg/kg i.v., Day 7
  Clinical observations/No of animals per group: 0/6
  No of animals found dead/No. of animals per group: 0/6
C57BL/6 female mice; G3 16 mg/kg i.v., Day 1
  Clinical observations/No of animals per group: 1/6
  No of animals found dead/No. of animals per group: 0/6
C57BL/6 female mice; G3 16 mg/kg i.v., Day 2
  Clinical observations/No of animals per group: 0/6
  No of animals found dead/No. of animals per group: 0/6
C57BL/6 female mice; G3 16 mg/kg i.v., Day 3
  Clinical observations/No of animals per group: 0/6
  No of animals found dead/No. of animals per group: 0/6
C57BL/6 female mice; G3 16 mg/kg i.v., Day 4
  Clinical observations/No of animals per group: 0/6
  No of animals found dead/No. of animals per group: 0/6
C57BL/6 female mice; G3 16 mg/kg i.v., Day 5
  Clinical observations/No of animals per group: 0/6
  No of animals found dead/No. of animals per group: 0/6
C57BL/6 female mice; G3 16 mg/kg i.v., Day 6
  Clinical observations/No of animals per group: 0/6
  No of animals found dead/No. of animals per group: 0/6
C57BL/6 female mice; G3 16 mg/kg i.v., Day 7
  Clinical observations/No of animals per group: 0/6
  No of animals found dead/No. of animals per group: 0/6
C57BL/6 female mice; G4 32 mg/kg i.v., Day 1
  Clinical observations/No of animals per group: 0/6
  No of animals found dead/No. of animals per group: 0/6
C57BL/6 female mice; G4 32 mg/kg i.v., Day 2
  Clinical observations/No of animals per group: 0/6
  No of animals found dead/No. of animals per group: 0/6
C57BL/6 female mice; G4 32 mg/kg i.v., Day 3
  Clinical observations/No of animals per group: 0/6
  No of animals found dead/No. of animals per group: 0/6
C57BL/6 female mice; G4 32 mg/kg i.v., Day 4
  Clinical observations/No of animals per group: 0/6
  No of animals found dead/No. of animals per group: 0/6
C57BL/6 female mice; G4 32 mg/kg i.v., Day 5
  Clinical observations/No of animals per group: 0/6
  No of animals found dead/No. of animals per group: 0/6
C57BL/6 female mice; G4 32 mg/kg i.v., Day 6
  Clinical observations/No of animals per group: 0/6
  No of animals found dead/No. of animals per group: 0/6
C57BL/6 female mice; G4 32 mg/kg i.v., Day 7
  Clinical observations/No of animals per group: 0/6
  No of animals found dead/No. of animals per group: 0/6
C57BL/6 female mice; all groups (4, 8, 16, 32 mg/kg i.v.)
  treatment related change in body weight: No treatment related change in body weight was observed
C57BL/6 female mice; any of the groups (4, 8, 16, 32 mg/kg i.v.), 7 days
  mortality: no mortality was observed

## CCCCCCCCNCCC[C@@H](C)[C@H]1CC[C@H]2[C@@H]3[C@H](OCCCN)C[C@@H]4C[C@H](OCCCN)CC[C@]4(C)[C@H]3C[C@H](OCCCN)[C@]12C [CSA-13]
[1]
  MIC: 1.6 µg/mL (≈ 2.36 µM)
